What all share (type): cell-based
For one series, the system named is MCF-7 cell line. Kind of series: MTT cytotoxicity evaluation on MCF-7 cells. The following applies: 100 μM, 24 h. Here is the method: (§1) Cells were incubated at 37 °C in an incubator with 5% CO2. Cell viability was determined using the MTT assay. Briefly, MCF-7 cell lines were seeded at 5000–8000 cells/well in 96-well plates. […] Following a continuous 24 h of incubation, the culture medium was replaced by 90 μL fresh culture medium, and 10 μL MTT solution was added.

The test system of the next series is R. solani. Kind of series: microbe, parasite or virus in culture. To be noted: Rhizoctonia solani, read-out: The Inhibition Rate (%) R. solani.
The subject of a further series is F. graminearum. Description: microbe, parasite or virus in culture. The following applies: Fusarium graminearum; for inhibition at 50 µg/mL: read-out: The Inhibition Rate (%) F. graminearum.
The subject of the next series is E. turcicum. Description: Mycelial growth inhibition test in vitro (E. turcicum). To be noted: Exserohilum turcicum; 50 μg/mL, mean ± SD of three replicates; read-out: The Inhibition Rate (%) E. turcicum.
Another series deals with B. cinerea. Kind of series: Mycelial growth inhibition test in vitro (B. cinerea). To be noted: Botrytis cinerea; 50 μg/mL, mean ± SD of three replicates; read-out: The Inhibition Rate (%) B. cinerea. The method, then:
(§2) The antifungal activity of the target compound was tested by the mycelial growth inhibition rate method. The compounds were detected at a concentration of 50 μg/mL, and carbendazim was used as the positive control. The antifungal activity was carried out according to literature reports. After drilling the mycelium (3 mm), it was inoculated into the PDA medium containing compounds, and the Petri dish was put into the incubator at 25 °C for 12-48 h; then, the colony diameter was measured with 50 index vernier caliper by the cross method, and the data were recorded. […] • A: The average diameter of the blank medium colony. • B: Diameter of mushroom cake (3 mm). • C: The average diameter of the colonies in the medium containing compound.

The subject of a further series is C. capsica. Description: Mycelial growth inhibition test in vitro (C. capsica). The following applies: Colletotrichum; 50 μg/mL, mean ± SD of three replicates; read-out: The Inhibition Rate (%) C. capsica. The method, then:
as §2, with “compound. […] The PDA medium containing different concentrations of the compound was prepared by the two-fold dilution method, the final concentration of the compound in the medium was adjusted to 0-100.00 μg/mL, and three parallel samples were set for each concentration. […] The toxicity regression equation of the tested compound was obtained, taking the logarithm of compound concentration (lgc) as the independent variable (x) and the probability value of inhibition rate as the dependent variable (y), and the EC50 value of each tested compound was calculated.” for “compound.”

The nature of series [1]: MTT cytotoxicity evaluation on MCF-7 cells. To be noted: human, range 0~100 μM. The method, then:
as §1

Values after ≈ are worked out from the molar mass of the structure shown.

Regarding `Clc1ccc(/C=C/c2nc(-c3ccccc3)no2)cc1` [Compound 5c, (E)-5-(4-Chlorostyryl)-3-phenyl-1,2,4-oxadiazole], the “cell survival rate of MCF-7 cells” value in the series on MCF-7 cell line was “significant cell proliferation”. In addition, the inhibition at 50 µg/mL with R. solani, with F. graminearum, in the series on E. turcicum and in the series with B. cinerea was below 10% throughout.

Regarding `FC(F)(F)c1ccc(-c2nc(-c3ccccc3)no2)cc1` [Compound 4h, 3-Phenyl-5-(4-(trifluoromethyl)phenyl)-1,2,4-oxadiazole], the inhibition at 50 µg/mL in the series on R. solani was below 10%; in the series on F. graminearum it was 29 ± 8.54%; with E. turcicum, below 10%; in the series with B. cinerea, below 10%; in the series on C. capsica, below 10%.

On to `COc1cc(/C=C/c2nc(-c3ccccc3)no2)cc(OC)c1OC` [Compound 5b, (E)-3-Phenyl-5-(3,4,5-trimethoxystyryl)-1,2,4-oxadiazole], for which the IC50 at 24 h in series [1] was at least 100 µM. Also, the inhibition at 50 µg/mL in the series on R. solani was determined as 21.2 ± 2.78%; in the series with F. graminearum, 36.1 ± 1.67%; with E. turcicum, 31.8 ± 1.44%; with B. cinerea, 30.2 ± 6.4%; in the series with C. capsica, 20.6 ± 4.48%.

On to `COc1ccc(-c2noc(-c3ccc(Cl)cc3)n2)cc1` [Compound 4j, 5-(4-Chlorophenyl)-3-(4-methoxyphenyl)-1,2,4-oxadiazole], for which the inhibition at 50 µg/mL in the series on R. solani, in the series with F. graminearum, with E. turcicum, in the series with B. cinerea and in the series with C. capsica was below 10% in each case.

In series [1], `Oc1cc(O)cc(-c2nc(-c3ccccc3)no2)c1` [Compound 4e, 5-(3-Phenyl-1,2,4-oxadiazol-5-yl) benzene-1,3-diol] yielded an IC50 at 24 h of at least 100 µM. Besides, the inhibition at 50 µg/mL with R. solani was 16.6 ± 1.47%; in the series with F. graminearum it was 30.1 ± 4.51%; with E. turcicum, 26.5 ± 3.09%; in the series with B. cinerea, below 10%; in the series with C. capsica, 18.8 ± 3.1%.

For `COc1ccc(-c2noc(-c3ccc(Cl)cc3)n2)cc1OC` [Compound 4m, 5-(4-Chlorophenyl)-3-(3,4-dimethoxyphenyl)-1,2,4-oxadiazole], the values for the inhibition at 50 µg/mL in the series on R. solani, in the series on F. graminearum and in the series on E. turcicum were 11.7 ± 5.11%, below 10% and 15.2 ± 0.77%, respectively.

Consider `CC(C)(C)c1ccc(-c2nc(-c3ccccc3)no2)cc1` [Compound 4c, 5-(4-(tert-Butyl)phenyl)-3-phenyl-1,2,4-oxadiazole], for which the inhibition at 50 µg/mL is 10.7 ± 3.54% in the series on R. solani; 33.5 ± 3.88% with F. graminearum; 30.1 ± 1.95% in the series with E. turcicum; below 10% in the series on B. cinerea; below 10% with C. capsica.

For the compound `COc1ccc(-c2noc(/C=C/c3ccccc3)n2)cc1` [Compound 5d, (E)-3-(4-Methoxyphenyl)-5-styryl-1,2,4-oxadiazole], the inhibition at 50 µg/mL in the series on R. solani was below 10%; in the series with F. graminearum it was 19 ± 7.4%; with E. turcicum, 19.2 ± 2.39%; in the series with B. cinerea, 21.7 ± 6.82%.

On to `Oc1cc(-c2nc(-c3ccccc3)no2)cc(O)c1O` [Compound 4g, 5-(3-Phenyl-1,2,4-oxadiazol-5-yl) benzene-1,2,3-triol], for which the inhibition at 50 µg/mL is 39.9 ± 3.44% in the series on R. solani; 56.9 ± 6.74% with F. graminearum; 38.7 ± 1% in the series with E. turcicum; below 10% with B. cinerea; 47.6 ± 1.05% in the series with C. capsica. Also, in the series on F. graminearum (read-out: EC50 (μg/mL) F. graminearum), the EC50 turned out to be 80.5 µg/mL (≈ 298 µM).

Consider `COc1ccc(-c2noc(-c3ccc(OC)c(OC)c3)n2)cc1` [Compound 4k, 5-(3,4-Dimethoxyphenyl)-3-(4-methoxyphenyl)-1,2,4-oxadiazole], for which the inhibition at 50 µg/mL is 22.6 ± 8.85% with R. solani; 21.7 ± 2.53% in the series with F. graminearum; below 10% in the series with E. turcicum; below 10% in the series with B. cinerea; below 10% in the series with C. capsica.

Turning to `COc1ccc(-c2nc(-c3ccccc3)no2)cc1OC` [Compound 4b, 5-(3,4-Dimethoxyphenyl)-3-phenyl-1,2,4-oxadiazole], the inhibition at 50 µg/mL is 18.7 ± 5.82% in the series with R. solani; 23.8 ± 7.22% with F. graminearum; 60.4 ± 1.68% with E. turcicum; below 10% in the series with B. cinerea; below 10% with C. capsica.

`COc1cc(-c2noc(-c3ccc(C(C)(C)C)cc3)n2)cc(OC)c1OC` [Compound 4u, 5-(4-(tert-Butyl)phenyl)-3-(3,4,5-trimethoxyphenyl)-1,2,4-oxadiazole]: in series [1], the IC50 at 24 h was at least 100 µM. The inhibition at 50 µg/mL with R. solani, in the series with F. graminearum, in the series with E. turcicum, with B. cinerea and in the series with C. capsica was below 10% throughout.

Turning to `COc1ccc(-c2nc(-c3ccc(OC)c(OC)c3)no2)cc1` [Compound 4w, 3-(3,4-Dimethoxyphenyl)-5-(4-methoxyphenyl)-1,2,4-oxadiazole], the inhibition at 50 µg/mL in the series with R. solani, in the series on F. graminearum, with E. turcicum, with B. cinerea and in the series with C. capsica was below 10% in each case.

As for `COc1ccc(-c2noc(-c3cccc(O)c3)n2)cc1OC` [Compound 4o, 3-(3-(3,4-Dimethoxyphenyl)-1,2,4-oxadiazol-5-yl)phenol], the inhibition at 50 µg/mL was 24.4 ± 1.65% with R. solani; 55.1 ± 2.99% in the series with F. graminearum; 28.1 ± 1.65% in the series with E. turcicum; below 10% in the series on B. cinerea; 20.8 ± 0.59% in the series with C. capsica.

Take `COc1cc(-c2noc(-c3ccc(Cl)cc3)n2)cc(OC)c1OC` [Compound 4s, 5-(4-Chlorophenyl)-3-(3,4,5-trimethoxyphenyl)-1,2,4-oxadiazole]: the inhibition at 50 µg/mL with R. solani, with F. graminearum, in the series with E. turcicum, in the series on B. cinerea and in the series on C. capsica was below 10% in each case.

Consider `Clc1ccc(-c2nc(-c3ccccc3)no2)cc1` [Compound 4a, 5-(4-Chlorophenyl)-3-phenyl-1,2,4-oxadiazole], for which the inhibition at 50 µg/mL in the series on R. solani is below 10%; in the series on F. graminearum, 19.1 ± 7.15%; with E. turcicum it was 17.5 ± 2.68%; in the series with B. cinerea, below 10%.

As for `Oc1cccc(-c2nc(-c3ccccc3)no2)c1` [Compound 4d, 3-(3-Phenyl-1,2,4-oxadiazol-5-yl) phenol], the IC50 at 24 h in series [1] is at least 100 µM. In addition, the inhibition at 50 µg/mL was determined as 18.6 ± 2.71% with R. solani; 40.2 ± 1.5% in the series on F. graminearum; 46.1 ± 0.74% in the series with E. turcicum; 36.8 ± 9.53% in the series with B. cinerea; 22.3 ± 2.97% with C. capsica.

Regarding `C(=C\c1nc(-c2ccccc2)no1)/c1ccccc1` [Compound 5a, (E)-3-Phenyl-5-styryl-1,2,4-oxadiazole], the inhibition at 50 µg/mL is 14.5 ± 6.32% in the series with R. solani, below 10% in the series on F. graminearum, 21.1 ± 3.85% in the series on E. turcicum and below 10% with B. cinerea.

In the case of `COc1ccc(-c2noc(-c3ccc(C(C)(C)C)cc3)n2)cc1OC` [Compound 4n, 5-(4-(tert-Butyl)phenyl)-3-(3,4-dimethoxyphenyl)-1,2,4-oxadiazole], in series [1], the IC50 at 24 h is at least 100 µM. Further, the inhibition at 50 µg/mL with R. solani is below 10%; with F. graminearum it was below 10%; with E. turcicum it was 29.8 ± 1.26%; in the series on B. cinerea, below 10%; in the series with C. capsica, below 10%.

For `COc1cc(-c2noc(-c3cccc(O)c3)n2)cc(OC)c1OC` [Compound 4v, 3-(3-(3,4,5-Trimethoxyphenyl)-1,2,4-oxadiazol-5-yl) phenol], the inhibition at 50 µg/mL was below 10% with R. solani; 26.1 ± 9.47% in the series on F. graminearum; 15.5 ± 3.53% in the series on E. turcicum; below 10% in the series with B. cinerea; below 10% in the series on C. capsica.

The term inhibition denotes the drop in the measured response relative to a control, in per cent. Broadly, the IC50 is the midpoint of a concentration-inhibition curve. Lower therefore signals inhibition by little substance.

For the origin of these results see publication PMC12029309, “Synthesis and Antifungal Activity of 1,2,4-Oxadiazole Derivatives” (Molecules, 2025).
